Values of other authors in patent publication US20040148013A1, “Stent-based delivery statins to prevent restenosis” (priority 2003, published 2004).

Key:
neointimal accumulation = settings: in vivo, rat carotid artery injury model

CC(=O)O[C@H]1C(=O)[C@@]2(C)[C@H]([C@H](OC(=O)c3ccccc3)[C@]3(O)C[C@H](OC(=O)[C@H](O)[C@@H](NC(=O)c4ccccc4)c4ccccc4)C(C)=C1C3(C)C)[C@]1(OC(C)=O)CO[C@@H]1C[C@@H]2O [Taxol®, Paclitaxel]
induction of apoptosis (SMC; biologically relevant concentrations): does not appear to induce apoptosis
SMC proliferation (SMC; in vitro): inhibited
platelet-derived growth factor-stimulated SMC migration (SMC; in vitro): inhibited
neointimal accumulation (neointimal accumulation): inhibited neointimal accumulation
